The subject of data set [1] is OVSAHO. As to the kind of experiment: OVSAHO Cell Viability. The format is cell-based. The following applies: for OVSAHO Cell Viability (50 μM) % CD133 + % ctrl / OVSAHO Cell Viability (30 μM) % CD133 + % ctrl: CD133+ cells; for OVSAHO Cell Viability (50 μM) Total Cell % ctrl / OVSAHO Cell Viability (30 μM) Total Cell % ctrl: total cells.
Data set [2] has as its target T1, ALDH1A1 (Homo sapiens, UniProt P00352).
T1 sequence (P00352 1-501): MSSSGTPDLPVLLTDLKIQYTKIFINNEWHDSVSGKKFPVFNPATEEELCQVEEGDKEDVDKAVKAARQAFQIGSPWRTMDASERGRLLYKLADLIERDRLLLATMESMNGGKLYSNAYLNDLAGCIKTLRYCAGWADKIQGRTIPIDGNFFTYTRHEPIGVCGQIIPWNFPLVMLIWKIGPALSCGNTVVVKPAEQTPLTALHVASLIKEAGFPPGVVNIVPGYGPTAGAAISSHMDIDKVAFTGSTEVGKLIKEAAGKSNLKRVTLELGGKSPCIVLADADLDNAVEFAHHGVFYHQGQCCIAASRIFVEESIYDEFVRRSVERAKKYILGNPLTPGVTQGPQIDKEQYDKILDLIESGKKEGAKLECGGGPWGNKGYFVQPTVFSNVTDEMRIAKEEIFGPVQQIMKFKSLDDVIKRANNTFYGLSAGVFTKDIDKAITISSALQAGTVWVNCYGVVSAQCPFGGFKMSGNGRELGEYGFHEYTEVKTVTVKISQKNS
As to the kind of experiment: Inhibition of ALDH isoenzymes (NAD(P)H formation at 340 nm, purified recombinant enzyme). It counts as biochemical. Conditions: for pIC50: 100-200 nM enzyme, 200 μM NAD+, 100 μM propionaldehyde, pH 7.5, 25° C.; for remaining activity at 20 µM: compound at 20 μM, read-out: ALDH1A1 % Control at 20 μM.

Data set [3] deals with T2, ALDH1A2 (Homo sapiens, UniProt O94788).
T2 sequence (O94788 1-518): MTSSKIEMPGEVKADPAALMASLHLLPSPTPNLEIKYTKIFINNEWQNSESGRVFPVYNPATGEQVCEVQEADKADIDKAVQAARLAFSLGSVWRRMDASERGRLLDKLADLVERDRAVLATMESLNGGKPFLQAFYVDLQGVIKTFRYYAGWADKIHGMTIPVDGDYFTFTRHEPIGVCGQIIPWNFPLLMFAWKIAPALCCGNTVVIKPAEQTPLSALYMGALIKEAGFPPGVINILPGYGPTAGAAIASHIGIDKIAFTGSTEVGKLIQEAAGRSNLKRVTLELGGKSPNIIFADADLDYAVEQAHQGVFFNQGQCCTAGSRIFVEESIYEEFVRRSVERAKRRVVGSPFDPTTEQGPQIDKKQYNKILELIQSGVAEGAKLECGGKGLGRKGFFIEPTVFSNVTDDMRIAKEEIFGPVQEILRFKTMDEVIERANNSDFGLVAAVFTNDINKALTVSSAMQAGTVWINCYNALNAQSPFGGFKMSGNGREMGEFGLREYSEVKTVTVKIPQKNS
Described as above. Conditions: for pIC50: 100-200 nM enzyme, 200 μM NAD+, 100 μM propionaldehyde, pH 7.5, 25° C.; for remaining activity at 20 µM: compound at 20 μM, read-out: ALDH1A2 % Control at 20 μM. The format is biochemical.

The target of data set [4] is T3, ALDH1A3 (Homo sapiens, UniProt P47895).
T3 sequence (P47895 1-512): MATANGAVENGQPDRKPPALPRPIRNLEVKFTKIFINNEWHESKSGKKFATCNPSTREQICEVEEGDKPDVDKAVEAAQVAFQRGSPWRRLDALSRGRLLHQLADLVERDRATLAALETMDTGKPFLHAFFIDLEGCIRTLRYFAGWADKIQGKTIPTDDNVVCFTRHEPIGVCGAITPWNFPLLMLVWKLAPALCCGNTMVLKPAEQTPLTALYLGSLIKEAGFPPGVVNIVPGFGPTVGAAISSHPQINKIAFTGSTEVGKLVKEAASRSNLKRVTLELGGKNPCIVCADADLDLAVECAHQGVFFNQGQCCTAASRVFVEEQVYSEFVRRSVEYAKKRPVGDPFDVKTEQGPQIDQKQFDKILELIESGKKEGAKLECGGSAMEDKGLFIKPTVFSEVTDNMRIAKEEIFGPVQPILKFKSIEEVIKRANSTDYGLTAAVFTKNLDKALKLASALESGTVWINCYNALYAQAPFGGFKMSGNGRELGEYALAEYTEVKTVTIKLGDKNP
The data set is described as above. The format is biochemical. Conditions: for pIC50: 100-200 nM enzyme, 200 μM NAD+, 100 μM propionaldehyde, pH 7.5, 25° C.; for remaining activity at 20 µM: compound at 20 μM, read-out: ALDH1A3 % Control at 20 μM.

In data set [5] the target is T4, ALDH2 (Homo sapiens, UniProt P05091).
T4 sequence (P05091 18-517): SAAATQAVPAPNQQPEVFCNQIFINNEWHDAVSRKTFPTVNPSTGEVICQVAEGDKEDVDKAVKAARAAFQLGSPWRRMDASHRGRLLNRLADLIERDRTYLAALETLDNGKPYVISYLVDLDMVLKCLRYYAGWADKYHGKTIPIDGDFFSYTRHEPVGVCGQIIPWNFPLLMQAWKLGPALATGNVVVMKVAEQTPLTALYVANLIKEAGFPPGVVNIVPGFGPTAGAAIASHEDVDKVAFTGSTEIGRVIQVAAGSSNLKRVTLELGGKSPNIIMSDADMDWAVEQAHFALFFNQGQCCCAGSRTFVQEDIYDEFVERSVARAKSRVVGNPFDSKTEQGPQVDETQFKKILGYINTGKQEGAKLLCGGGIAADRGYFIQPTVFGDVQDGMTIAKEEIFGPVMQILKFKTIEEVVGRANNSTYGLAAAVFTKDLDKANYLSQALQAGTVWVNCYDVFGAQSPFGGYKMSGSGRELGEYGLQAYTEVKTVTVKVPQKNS
Described as above. On the set-up: key to ALDH2 inhibition at 20 μM (N.I.): N.I.: No inhibition at 20 μM. The following applies: compound at 20 μM; for remaining activity at 20 µM: read-out: ALDH2 % Control at 20 μM. It counts as biochemical.

pIC50: −log10 of the molar value. Where a name gives a salt, the structure may show the parent alone. A value given as a limit tells only on which side of the number the result lay.
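Throughout, for ALDH2 % Control at 20 μM: run at 25 °C, started by adding substrate after 2 min preincubation, with 100-200 nM ALDH2, 200 µM NAD+, 100 µM propionaldehyde, 1% DMSO in BES buffer pH 7.5.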
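Throughout, for ALDH2 inhibition at 20 μM (N.I.): run at 25 °C, started by adding substrate after 2 min preincubation, with 100-200 nM ALDH2, 200 µM NAD+, 100 µM propionaldehyde, 1% DMSO in BES buffer pH 7.5.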

For the molecule `CCn1ncc2c(=O)n(-c3ccccc3)c(SCc3cccc(F)c3)nc21` [Example 14, 1-ethyl-6-((3-fluorobenzyl)thio)-5-phenyl-1H-pyrazolo[3,4-d]pyrimidin-4(5H)-one], the “OVSAHO Cell Viability (50 μM) % CD133 + % ctrl” value in data set [1] turned out to be 39 % ctrl. In data set [1], the “OVSAHO Cell Viability (50 μM) Total Cell % ctrl” value stood at 13 % ctrl. Further, the figures for the pIC50 in data set [2], in data set [3] and in data set [4] were 6.49, 6.40 and 6.60, respectively. The remaining activity at 20 µM in data set [5] stood at 82%.
Take `CCn1cc2c(=O)n(-c3ccccc3)c(SCc3cccc(F)c3)nc2n1` [Example 15, 2-ethyl-6-((3-fluorobenzyl)thio)-5-phenyl-2H-pyrazolo[3,4-d]pyrimidin-4(5H)-one]: the “OVSAHO Cell Viability (50 μM) % CD133 + % ctrl” value in data set [1] is on record as 83 % ctrl. Further, in data set [1], the “OVSAHO Cell Viability (50 μM) Total Cell % ctrl” value is on record as 51 % ctrl. Further, the pIC50 (usually −log10 of the IC50, conventionally taken in molar units) is 6.76 in data set [2], 6.22 in data set [3] and 6.82 in data set [4]. Moreover, in data set [5], the remaining activity at 20 µM was 98%.
Regarding `Cn1ncc2c(=O)n(-c3ccccc3O)c(SCc3cccc(F)c3)nc21` [Example 33, 6-((3-fluorobenzyl)thio)-5-(2-hydroxyphenyl)-1-methyl-1H-pyrazolo[3,4-d]pyrimidin-4(5H)-one], the “OVSAHO Cell Viability (50 μM) % CD133 + % ctrl” value in data set [1] worked out at 92 % ctrl. In data set [1], the “OVSAHO Cell Viability (50 μM) Total Cell % ctrl” value was found to be 18 % ctrl. In addition, the pIC50 in data set [2] was 5.39. Also, the remaining activity at 20 µM in data set [3] was 92%; in data set [4] it was 100%; in data set [5], 88%.
Regarding `CC(C)CCSc1nc2c(cnn2C)c(=O)n1-c1ccccc1` [Example 38, 6-(isopentylthio)-1-methyl-5-phenyl-1H-pyrazolo[3,4-d]pyrimidin-4(5H)-one], the “OVSAHO Cell Viability (50 μM) % CD133 + % ctrl” value in data set [1] stood at 50 % ctrl. Further, the “OVSAHO Cell Viability (50 μM) Total Cell % ctrl” value in data set [1] amounted to 39 % ctrl. For the same molecule, the pIC50 in data set [2] was 5.92; in data set [3], 6.03; in data set [4] it was 6.41. In data set [5], the remaining activity at 20 µM is 96%.
Regarding `Cc1ccccc1-n1c(OCc2cc3ccccc3s2)nc2c(cnn2C)c1=O` [Example 40, 6-(benzo[b]thiophen-2-ylmethoxy)-1-methyl-5-(o-tolyl)-1H-pyrazolo[3,4-d]pyrimidin-4(5H)-one], the “OVSAHO Cell Viability (50 μM) % CD133 + % ctrl” value in data set [1] amounted to 50 % ctrl. In data set [1], the “OVSAHO Cell Viability (50 μM) Total Cell % ctrl” value turned out to be 15 % ctrl. The pIC50 in data set [2] was 5.77; in data set [3], less than 5.00; in data set [4], less than 5.00. Besides, in data set [5], the “ALDH2 inhibition at 20 μM (N.I.)” value is “N.I”.
Take `Cn1ncc2c(=O)n(-c3ccccc3)c(SCc3cccc(C(=O)C(F)(F)F)c3)nc21` [Example 57, 1-methyl-5-phenyl-6-((3-(2,2,2-trifluoroacetyl)benzyl)thio)-1H-pyrazolo[3,4-d]pyrimidin-4(5H)-one]: the “OVSAHO Cell Viability (30 μM) % CD133 + % ctrl” value in data set [1] came to 84% ctrl. The “OVSAHO Cell Viability (30 μM) Total Cell % ctrl” value in data set [1] is 29% ctrl. Moreover, the values for the negative-log IC50 (pIC50) in data set [2], in data set [3] and in data set [4] were 7.14, 5.76 and 5.76, respectively. Moreover, the remaining activity at 20 µM in data set [5] turned out to be 100%.
For the molecule `O=c1c2cn(CC3COC3)nc2nc(OCc2cccc(F)c2)n1-c1ccccc1` [Example 63], in data set [1], the “OVSAHO Cell Viability (30 μM) % CD133 + % ctrl” value is 81% ctrl and the “OVSAHO Cell Viability (30 μM) Total Cell % ctrl” value is 18% ctrl. In data set [2], the pIC50 is 5.64. For the same molecule, the remaining activity at 5 µM in data set [3] (compound at 5 μM (footnote *), read-out: ALDH1A2 % Control at 5 μM) came to 43%. Moreover, in data set [4] (compound at 5 μM (footnote *), read-out: ALDH1A3 % Control at 5 μM), the remaining activity at 5 µM was found to be 61%. For the same molecule, in data set [5], the remaining activity at 20 µM is 102%.
As for `CC1(Cn2cc3c(=O)n(-c4ccccc4)c(SCc4cccc(F)c4)nc3n2)COC1` [Example 67, 6-((3-fluorobenzyl)thio)-2-((3-methyloxetan-3-yl)methyl)-5-phenyl-2H-pyrazolo[3,4-d]pyrimidin-4(5H)-one], the “OVSAHO Cell Viability (30 μM) % CD133 + % ctrl” value in data set [1] turned out to be 100% ctrl. Also, the “OVSAHO Cell Viability (30 μM) Total Cell % ctrl” value in data set [1] worked out at 16% ctrl. Also, the remaining activity at 20 µM in data set [2] was 7%; in data set [3] it was 21%; in data set [4], 4%; in data set [5] it was 97%.
`O=c1c2cn(CC3CNC3)nc2nc(SCc2cccc(F)c2)n1-c1ccccc1` [Example 68, 3-((6-((3-fluorobenzyl)thio)-4-oxo-5-phenyl-4,5-dihydro-2H-pyrazolo[3,4-d]pyrimidin-2-yl)methyl)azetidin-1-ium sulfate]: in data set [1], the “OVSAHO Cell Viability (30 μM) Total Cell % ctrl” value worked out at 16% ctrl. In addition, the remaining activity at 20 µM in data set [2] is 14%; in data set [3], 14%; in data set [4], 10%; in data set [5] it was 93%.
With `C[C@H](Sc1nc2c(cnn2C)c(=O)n1-c1ccccc1)c1ccccc1` [Example 69, (S)-1-methyl-5-phenyl-6-((1-phenylethyl)thio)-1H-pyrazolo[3,4-d]pyrimidin-4(5H)-one], the “OVSAHO Cell Viability (30 μM) % CD133 + % ctrl” value in data set [1] is given as 80% ctrl. The “OVSAHO Cell Viability (30 μM) Total Cell % ctrl” value in data set [1] stood at 25% ctrl. Further, the remaining activity at 20 µM turned out to be 18% in data set [2], 19% in data set [3], 9% in data set [4] and 95% in data set [5].
For the molecule `CCC(Sc1nc2c(cnn2C)c(=O)n1-c1ccccc1)c1ccccc1` (centres unmarked) [Example 70, 1-methyl-5-phenyl-6-((1-phenylpropyl)thio)-1H-pyrazolo[3,4-d]pyrimidin-4(5H)-one], the “OVSAHO Cell Viability (30 μM) % CD133 + % ctrl” value in data set [1] is listed as 56% ctrl. Further, the “OVSAHO Cell Viability (30 μM) Total Cell % ctrl” value in data set [1] turned out to be 17% ctrl. In addition, the remaining activity at 20 µM in data set [2] is -5%; in data set [3] it was -14%; in data set [4], -10%; in data set [5], 90%.

The record behind these values is US11944626B2, “Small molecule inhibitors of ALDH and uses thereof” (The Regents of the University of Michigan, priority 2016, dated 2024).
